Laboratory results: ChEMBL document CHEMBL4507287, “Data for DCP probe MRL-650” (2021)

Experiments:
[1] = target: Cyclin-G-associated kinase (Homo sapiens) (UniProt O14976); settings: Compound concentration 1000.0 nM
[2] = target: Mitogen-activated protein kinase kinase kinase 4 (Homo sapiens) (UniProt Q9Y6R4); settings: Compound concentration 1000.0 nM
[3] = target: Ephrin type-B receptor 6 (Homo sapiens) (UniProt O15197); settings: Compound concentration 1000.0 nM
[4] = target: Serine/threonine-protein kinase Sgk1 (Homo sapiens) (UniProt O00141); settings: Compound concentration 1000.0 nM
[5] = target: Serine/threonine-protein kinase TNNI3K (Homo sapiens) (UniProt Q59H18); settings: Compound concentration 1000.0 nM
[6] = target: Calcium/calmodulin-dependent protein kinase type 1D (Homo sapiens) (UniProt Q8IU85); settings: Compound concentration 1000.0 nM
[7] = target: Beta-2 adrenergic receptor (Homo sapiens) (UniProt P07550); settings: Compound concentration 10.0 uM
Sequence of Beta-2 adrenergic receptor (Homo sapiens) (P07550 whole entry, looked up): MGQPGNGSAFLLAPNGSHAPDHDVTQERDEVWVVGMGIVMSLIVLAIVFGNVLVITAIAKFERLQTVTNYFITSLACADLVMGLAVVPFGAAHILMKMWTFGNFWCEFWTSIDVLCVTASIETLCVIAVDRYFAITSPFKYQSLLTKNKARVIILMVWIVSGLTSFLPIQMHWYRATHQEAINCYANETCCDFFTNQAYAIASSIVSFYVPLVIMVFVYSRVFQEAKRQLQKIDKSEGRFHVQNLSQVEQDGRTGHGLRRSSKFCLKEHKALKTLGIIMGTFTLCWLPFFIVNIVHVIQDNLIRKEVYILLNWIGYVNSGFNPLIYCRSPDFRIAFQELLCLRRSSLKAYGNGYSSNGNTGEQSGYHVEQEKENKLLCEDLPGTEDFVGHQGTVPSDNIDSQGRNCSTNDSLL

[8] = target: Alpha-1D adrenergic receptor (Homo sapiens) (UniProt P25100); settings: Compound concentration 10.0 uM
[9] = target: Mitogen-activated protein kinase kinase kinase 10 (Homo sapiens) (UniProt Q02779); settings: Compound concentration 1000.0 nM
[10] = target: Tyrosine-protein kinase FRK (Homo sapiens) (UniProt P42685); settings: Compound concentration 1000.0 nM
[11] = target: Muscarinic acetylcholine receptor M3 (Homo sapiens) (UniProt P20309); settings: Compound concentration 10.0 uM
[12] = target: D(1B) dopamine receptor (Homo sapiens) (UniProt P21918); settings: Compound concentration 10.0 uM
[13] = target: LIM domain kinase 2 (Homo sapiens) (UniProt P53671); settings: Compound concentration 1000.0 nM
[14] = target: Mitogen-activated protein kinase 14 (Homo sapiens) (UniProt Q16539); settings: Compound concentration 1000.0 nM
Sequence of Mitogen-activated protein kinase 14 (Homo sapiens) (Q16539 whole entry): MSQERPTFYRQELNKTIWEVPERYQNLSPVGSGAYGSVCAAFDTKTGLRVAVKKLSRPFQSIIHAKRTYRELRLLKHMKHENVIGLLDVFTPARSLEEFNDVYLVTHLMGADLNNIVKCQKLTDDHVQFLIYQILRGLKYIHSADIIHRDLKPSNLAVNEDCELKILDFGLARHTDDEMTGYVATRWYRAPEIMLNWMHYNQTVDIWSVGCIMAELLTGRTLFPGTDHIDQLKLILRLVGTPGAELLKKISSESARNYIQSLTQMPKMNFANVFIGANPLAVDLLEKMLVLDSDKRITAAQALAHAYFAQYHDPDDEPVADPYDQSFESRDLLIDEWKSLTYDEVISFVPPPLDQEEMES

[15] = target: Serine/threonine-protein kinase NLK (Homo sapiens) (UniProt Q9UBE8); settings: Compound concentration 1000.0 nM
Sequence of Serine/threonine-protein kinase NLK (Homo sapiens) (Q9UBE8 whole entry): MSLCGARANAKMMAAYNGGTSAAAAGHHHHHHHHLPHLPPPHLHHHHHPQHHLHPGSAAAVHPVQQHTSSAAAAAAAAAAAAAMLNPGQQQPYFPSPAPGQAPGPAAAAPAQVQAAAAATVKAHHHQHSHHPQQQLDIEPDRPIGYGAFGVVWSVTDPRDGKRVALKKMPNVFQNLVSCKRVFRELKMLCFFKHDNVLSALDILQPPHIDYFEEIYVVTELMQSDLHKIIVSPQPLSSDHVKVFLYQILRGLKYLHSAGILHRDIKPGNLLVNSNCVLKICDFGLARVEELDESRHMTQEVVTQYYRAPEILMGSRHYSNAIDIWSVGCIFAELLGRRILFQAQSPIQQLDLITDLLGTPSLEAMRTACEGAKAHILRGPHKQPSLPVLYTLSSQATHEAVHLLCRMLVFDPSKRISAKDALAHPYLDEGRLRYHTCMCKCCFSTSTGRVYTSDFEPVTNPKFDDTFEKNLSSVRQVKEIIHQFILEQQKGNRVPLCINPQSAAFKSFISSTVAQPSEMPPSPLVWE

[16] = tested on: Mast/stem cell growth factor receptor Kit (Homo sapiens), P10721 [V559D]; settings: Compound concentration 1000.0 nM
[17] = tested on: Tyrosine-protein kinase ABL1 (Homo sapiens), P00519 [T315I]; settings: Compound concentration 1000.0 nM
[18] = target: Activin receptor type-2A (Homo sapiens) (UniProt P27037); settings: Compound concentration 1000.0 nM
[19] = target: Activated CDC42 kinase 1 (Homo sapiens) (UniProt Q07912); settings: Compound concentration 1000.0 nM
[20] = target: Serine/threonine-protein kinase RIO1 (Homo sapiens) (UniProt Q9BRS2); settings: Compound concentration 1000.0 nM
Sequence of Serine/threonine-protein kinase RIO1 (Homo sapiens) (Q9BRS2 whole entry): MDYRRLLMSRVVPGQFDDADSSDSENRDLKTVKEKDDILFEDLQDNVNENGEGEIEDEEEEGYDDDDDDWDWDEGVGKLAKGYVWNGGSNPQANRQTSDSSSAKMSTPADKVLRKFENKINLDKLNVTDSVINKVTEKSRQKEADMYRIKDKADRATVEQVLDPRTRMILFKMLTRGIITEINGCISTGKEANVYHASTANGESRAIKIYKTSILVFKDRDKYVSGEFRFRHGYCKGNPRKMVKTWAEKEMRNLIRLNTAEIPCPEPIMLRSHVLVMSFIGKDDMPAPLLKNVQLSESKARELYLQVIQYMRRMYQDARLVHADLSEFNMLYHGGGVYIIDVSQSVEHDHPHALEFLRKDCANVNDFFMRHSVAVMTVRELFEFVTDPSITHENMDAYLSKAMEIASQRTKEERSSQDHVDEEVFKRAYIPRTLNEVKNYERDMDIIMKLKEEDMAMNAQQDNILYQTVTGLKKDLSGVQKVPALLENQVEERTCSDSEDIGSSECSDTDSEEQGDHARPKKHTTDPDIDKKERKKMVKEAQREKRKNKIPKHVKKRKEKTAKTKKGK

[21] = target: Serine/threonine-protein kinase BRSK1 (Homo sapiens) (UniProt Q8TDC3); settings: Compound concentration 1000.0 nM
Sequence of Serine/threonine-protein kinase BRSK1 (Homo sapiens) (Q8TDC3 whole entry): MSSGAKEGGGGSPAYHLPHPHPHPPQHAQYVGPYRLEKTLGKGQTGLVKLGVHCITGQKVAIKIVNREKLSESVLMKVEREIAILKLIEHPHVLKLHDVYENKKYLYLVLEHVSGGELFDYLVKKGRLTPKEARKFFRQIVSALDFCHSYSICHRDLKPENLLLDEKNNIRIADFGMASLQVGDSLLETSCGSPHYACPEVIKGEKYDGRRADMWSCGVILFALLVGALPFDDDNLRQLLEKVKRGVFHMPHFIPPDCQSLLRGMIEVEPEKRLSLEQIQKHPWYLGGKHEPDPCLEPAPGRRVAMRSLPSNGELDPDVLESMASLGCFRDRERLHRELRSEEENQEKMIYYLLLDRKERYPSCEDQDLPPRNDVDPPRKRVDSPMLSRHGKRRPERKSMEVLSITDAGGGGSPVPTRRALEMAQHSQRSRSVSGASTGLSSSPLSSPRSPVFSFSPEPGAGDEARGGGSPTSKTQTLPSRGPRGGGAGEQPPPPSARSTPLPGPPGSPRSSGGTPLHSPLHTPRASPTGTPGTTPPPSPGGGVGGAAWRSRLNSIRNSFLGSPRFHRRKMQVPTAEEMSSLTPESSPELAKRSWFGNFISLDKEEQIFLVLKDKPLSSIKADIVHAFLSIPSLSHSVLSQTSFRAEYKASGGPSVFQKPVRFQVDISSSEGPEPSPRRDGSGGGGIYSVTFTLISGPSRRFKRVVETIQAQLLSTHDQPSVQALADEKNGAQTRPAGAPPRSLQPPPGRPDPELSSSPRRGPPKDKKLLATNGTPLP

[22] = target: Calcium/calmodulin-dependent protein kinase type 1G (Homo sapiens) (UniProt Q96NX5); settings: Compound concentration 1000.0 nM
[23] = target: Receptor-interacting serine/threonine-protein kinase 4 (Homo sapiens) (UniProt P57078); settings: Compound concentration 1000.0 nM
[24] = target: Dual specificity protein kinase CLK3 (Homo sapiens) (UniProt P49761); settings: Compound concentration 1000.0 nM
[25] = target: TGF-beta receptor type-2 (Homo sapiens) (UniProt P37173); settings: Compound concentration 1000.0 nM
[26] = target: Activin receptor type-2B (Homo sapiens) (UniProt Q13705); settings: Compound concentration 1000.0 nM
[27] = target: Fibroblast growth factor receptor 4 (Homo sapiens) (UniProt P22455); settings: Compound concentration 1000.0 nM
[28] = target: Cyclin-dependent kinase 11A (Homo sapiens) (UniProt Q9UQ88); settings: Compound concentration 1000.0 nM
[29] = target: Serine/threonine-protein kinase tousled-like 1 (Homo sapiens) (UniProt Q9UKI8); settings: Compound concentration 1000.0 nM
[30] = target: Sodium-dependent dopamine transporter (Homo sapiens, UniProt Q01959); settings: Compound concentration 10.0 uM
[31] = target: Activin receptor type-1B (Homo sapiens) (UniProt P36896); settings: Compound concentration 1000.0 nM
[32] = target: Serine/threonine-protein kinase DCLK3 (Homo sapiens) (UniProt Q9C098); settings: Compound concentration 1000.0 nM
Sequence of Serine/threonine-protein kinase DCLK3 (Homo sapiens) (Q9C098 whole entry): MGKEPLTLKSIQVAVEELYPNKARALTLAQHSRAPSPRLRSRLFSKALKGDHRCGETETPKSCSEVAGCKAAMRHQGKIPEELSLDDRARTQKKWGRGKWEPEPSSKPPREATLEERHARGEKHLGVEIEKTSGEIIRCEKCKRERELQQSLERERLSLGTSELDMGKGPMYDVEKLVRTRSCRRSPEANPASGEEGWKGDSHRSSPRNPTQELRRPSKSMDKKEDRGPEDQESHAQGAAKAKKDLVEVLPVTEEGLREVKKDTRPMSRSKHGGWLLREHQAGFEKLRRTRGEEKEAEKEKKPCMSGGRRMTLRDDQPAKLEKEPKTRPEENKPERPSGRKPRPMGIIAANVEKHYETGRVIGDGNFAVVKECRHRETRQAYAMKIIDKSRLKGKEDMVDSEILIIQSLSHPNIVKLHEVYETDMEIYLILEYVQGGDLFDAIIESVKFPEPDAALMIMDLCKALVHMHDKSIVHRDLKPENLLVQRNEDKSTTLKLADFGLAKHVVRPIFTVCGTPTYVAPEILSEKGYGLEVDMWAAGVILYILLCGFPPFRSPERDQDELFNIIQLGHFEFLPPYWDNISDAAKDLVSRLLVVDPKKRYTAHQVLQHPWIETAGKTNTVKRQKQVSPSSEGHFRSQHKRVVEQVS

[33] = target: Cyclin-dependent kinase 14 (Homo sapiens) (UniProt O94921); settings: Compound concentration 1000.0 nM
[34] = target: Mitogen-activated protein kinase kinase kinase 12 (Homo sapiens) (UniProt Q12852); settings: Compound concentration 1000.0 nM
Sequence of Mitogen-activated protein kinase kinase kinase 12 (Homo sapiens) (Q12852 whole entry): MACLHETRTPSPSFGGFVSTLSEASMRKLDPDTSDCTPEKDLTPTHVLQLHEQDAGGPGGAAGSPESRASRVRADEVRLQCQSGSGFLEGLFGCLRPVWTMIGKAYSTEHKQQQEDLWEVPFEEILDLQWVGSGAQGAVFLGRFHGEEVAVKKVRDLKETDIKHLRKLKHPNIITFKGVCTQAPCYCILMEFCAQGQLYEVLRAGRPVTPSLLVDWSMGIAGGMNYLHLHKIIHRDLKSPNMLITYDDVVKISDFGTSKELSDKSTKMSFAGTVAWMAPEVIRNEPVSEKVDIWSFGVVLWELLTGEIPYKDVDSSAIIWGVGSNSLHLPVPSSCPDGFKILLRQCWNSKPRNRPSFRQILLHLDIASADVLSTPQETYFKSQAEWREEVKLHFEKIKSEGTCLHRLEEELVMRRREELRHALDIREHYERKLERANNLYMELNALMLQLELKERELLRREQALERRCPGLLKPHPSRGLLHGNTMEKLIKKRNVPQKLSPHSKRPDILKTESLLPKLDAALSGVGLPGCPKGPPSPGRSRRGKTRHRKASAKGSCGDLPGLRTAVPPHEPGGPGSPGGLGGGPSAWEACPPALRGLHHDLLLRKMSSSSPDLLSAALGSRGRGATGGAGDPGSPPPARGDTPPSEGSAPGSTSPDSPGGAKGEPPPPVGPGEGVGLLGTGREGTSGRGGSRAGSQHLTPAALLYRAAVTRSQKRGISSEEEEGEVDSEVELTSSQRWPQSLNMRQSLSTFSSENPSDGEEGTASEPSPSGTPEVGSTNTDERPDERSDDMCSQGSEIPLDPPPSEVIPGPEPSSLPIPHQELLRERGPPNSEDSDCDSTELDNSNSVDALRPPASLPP

[35] = target: Cyclin-dependent kinase 13 (Homo sapiens) (UniProt Q14004); settings: Compound concentration 1000.0 nM
[36] = target: 3-phosphoinositide-dependent protein kinase 1 (Homo sapiens) (UniProt O15530); settings: Compound concentration 1000.0 nM
[37] = target: Serine/threonine-protein kinase/endoribonuclease IRE1 (Homo sapiens) (UniProt O75460); settings: Compound concentration 1000.0 nM
[38] = target: Receptor-type tyrosine-protein kinase FLT3 (Homo sapiens) (UniProt P36888); settings: Compound concentration 1000.0 nM
[39] = target: Cyclin-dependent kinase 5 (Homo sapiens) (UniProt Q00535); settings: Compound concentration 1000.0 nM
[40] = tested on: Proto-oncogene tyrosine-protein kinase receptor Ret (Homo sapiens), P07949 [V804L]; settings: Compound concentration 1000.0 nM
[41] = target: Calcium/calmodulin-dependent protein kinase type II subunit beta (Homo sapiens) (UniProt Q13554); settings: Compound concentration 1000.0 nM
[42] = tested on: eIF-2-alpha kinase GCN2 (Homo sapiens), Q9P2K8 [S808G]; settings: Compound concentration 1000.0 nM
[43] = target: Serine/threonine-protein kinase 3 (Homo sapiens) (UniProt Q13188); settings: Compound concentration 1000.0 nM
[44] = target: Myosin-IIIa (Homo sapiens) (UniProt Q8NEV4); settings: Compound concentration 1000.0 nM
[45] = target: Serine/threonine-protein kinase Sgk3 (Homo sapiens) (UniProt Q96BR1); settings: Compound concentration 1000.0 nM
[46] = target: Tyrosine-protein kinase Fer (Homo sapiens) (UniProt P16591); settings: Compound concentration 1000.0 nM
Sequence of Tyrosine-protein kinase Fer (Homo sapiens) (P16591 whole entry, looked up): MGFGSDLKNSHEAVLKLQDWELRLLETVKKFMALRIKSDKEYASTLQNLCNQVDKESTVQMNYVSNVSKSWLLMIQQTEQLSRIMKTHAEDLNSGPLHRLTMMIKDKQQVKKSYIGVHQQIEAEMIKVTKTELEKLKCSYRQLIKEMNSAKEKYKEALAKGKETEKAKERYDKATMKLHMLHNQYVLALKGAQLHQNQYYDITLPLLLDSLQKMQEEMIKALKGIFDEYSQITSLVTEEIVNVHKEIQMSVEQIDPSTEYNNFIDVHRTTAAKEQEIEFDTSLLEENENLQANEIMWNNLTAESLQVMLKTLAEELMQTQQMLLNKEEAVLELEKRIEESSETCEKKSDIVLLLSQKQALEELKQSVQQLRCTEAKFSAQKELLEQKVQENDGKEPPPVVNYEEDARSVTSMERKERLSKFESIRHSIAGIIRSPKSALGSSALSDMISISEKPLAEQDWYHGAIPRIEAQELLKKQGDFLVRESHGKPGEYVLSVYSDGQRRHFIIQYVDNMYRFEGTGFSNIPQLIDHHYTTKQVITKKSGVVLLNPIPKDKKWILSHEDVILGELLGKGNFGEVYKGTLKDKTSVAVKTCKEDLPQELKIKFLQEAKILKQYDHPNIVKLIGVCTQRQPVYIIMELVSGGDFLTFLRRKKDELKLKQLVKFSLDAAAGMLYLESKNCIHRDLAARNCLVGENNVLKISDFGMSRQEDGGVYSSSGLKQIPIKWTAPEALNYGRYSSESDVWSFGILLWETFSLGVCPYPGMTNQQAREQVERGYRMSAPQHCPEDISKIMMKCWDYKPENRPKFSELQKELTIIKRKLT

Structure (SMILES): CC(=O)c1c(NS(C)(=O)=O)c2cc(-c3ccc(Cl)cc3)c(-c3ccc(Cl)cc3Cl)nc2n(C)c1=O [MRL-CB1-NC]
- residual activity [1]: 100%
- residual activity [2]: 95%
- residual activity [3]: 100%
- residual activity [4]: 100%
- residual activity [5]: 100%
- residual activity [6]: 100%
- inhibition [7]: 5.51%
- inhibition [8]: 15.9%
- residual activity [9]: 99%
- residual activity [10]: 100%
- inhibition [11]: 4.36%
- inhibition [12]: 44.5%
- residual activity [13]: 91%
- residual activity [14]: 100%
- residual activity [15]: 72%
- residual activity [16]: 100%
- residual activity [17]: 93%
- residual activity [18]: 100%
- residual activity [19]: 92%
- residual activity [20]: 100%
- residual activity [21]: 99%
- residual activity [22]: 100%
- residual activity [23]: 61%
- residual activity [24]: 92%
- residual activity [25]: 100%
- residual activity [26]: 100%
- residual activity [27]: 100%
- residual activity [28]: 98%
- residual activity [29]: 95%
- inhibition [30]: 67.1%
- residual activity [31]: 92%
- residual activity [32]: 100%
- residual activity [33]: 100%
- residual activity [34]: 100%
- residual activity [35]: 96%
- residual activity [36]: 100%
- residual activity [37]: 77%
- residual activity [38]: 92%
- residual activity [39]: 100%
- residual activity [40]: 100%
- residual activity [41]: 100%
- residual activity [42]: 100%
- residual activity [43]: 100%
- residual activity [44]: 88%
- residual activity [45]: 79%
- residual activity [46]: 100%

Structure (SMILES): CC(=O)Nc1c(C(C)=O)c(=O)n(C)c2nc(-c3ccc(Cl)cc3Cl)c(-c3ccc(Cl)cc3)cc12 [NAPHTHYRIDINONE]
- residual activity [1]: 100%
- residual activity [2]: 89%
- residual activity [3]: 100%
- residual activity [4]: 100%
- residual activity [5]: 100%
- residual activity [6]: 100%
- inhibition [7]: 12.6%
- inhibition [8]: -3.09%
- residual activity [9]: 100%
- residual activity [10]: 100%
- inhibition [11]: -6.59%
- inhibition [12]: 5.24%
- residual activity [13]: 100%
- residual activity [14]: 100%
- residual activity [15]: 100%
- residual activity [16]: 100%
- residual activity [17]: 100%
- residual activity [18]: 100%
- residual activity [19]: 100%
- residual activity [20]: 100%
- residual activity [21]: 85%
- residual activity [22]: 100%
- residual activity [23]: 93%
- residual activity [24]: 100%
- residual activity [25]: 100%
- residual activity [26]: 100%
- residual activity [27]: 100%
- residual activity [28]: 100%
- residual activity [29]: 100%
- inhibition [30]: 36.4%
- residual activity [31]: 94%
- residual activity [32]: 100%
- residual activity [33]: 100%
- residual activity [34]: 100%
- residual activity [35]: 100%
- residual activity [36]: 100%
- residual activity [37]: 100%
- residual activity [38]: 100%
- residual activity [39]: 100%
- residual activity [40]: 100%
- residual activity [41]: 100%
- residual activity [42]: 48%
- residual activity [43]: 100%
- residual activity [44]: 100%
- residual activity [45]: 100%
- residual activity [46]: 88%
